According to US20070015725A1, “2-azapurine compounds and their uses” (Roche Diagnostics, GMBH, priority 1999, published 2007):
In the oligonucleotide strings, read from the 5' end, every base follows the letter of its sugar. An asterisk marks phosphorothioate; unmarked linkages are phosphodiester. Other units and linkages are bracketed, terminal groups are in braces. A string of capitals states the bases alone. [z2A] = 2-aza-2'-deoxyadenosine; d = 2'-deoxy (DNA)

Tests used:
[1] = tested on: oligonucleotide duplexes; assay: Tm values and thermodynamic parameters of duplex formation (absorbance vs. temperature melting curves); assay type: binding; conditions: for Tm / ΔG / ΔH / ΔS: 10 mM Na-cacodylate, 100 mM NaCl, 10 mM MgCl2, pH 7; for Tm: 5 μM single strand concentration; for ΔG: duplex formation (ΔG°298); for ΔG / ΔH / ΔS: 5 μM single strand, MeltWin 3.0; for ΔH / ΔS: duplex formation
Method: Determination of melting curves and thermodynamics: Absorbance vs. temperature profiles were measured on Cary 1 or 1E spectrophotometers (Varian, Australia) with a Cary thermoelectrical controller. […] 3.0. Circular dichroism (CD) spectra were recorded on a Jasco 600 (Jasco, Japan) spectropolarimeter, a thermostatically controlled bath (Lauda RCS-6) in a 1-cm cuvette.

[2] = tested on: natural nucleobases; conditions: cited from earlier work

Row | Compound | Tm [1] | ΔG [1] | ΔH [1] | ΔS [1] | also measured
1 | 5′-d(TAGGTC6ATACT) 3′-d(ATCCAGGTATGA): duplex SEQ ID NO: 3 with SEQ ID NO: 4; 6: z^2Ad; one z^2Ad-dG pair (chain 1 dTdAdGdGdTdCd[z2A]dAdTdAdCdT; chain 2: unmodified DNA) | 46 °C | -9.9 kcal/mol | -83 kcal/mol | −236 cal/K mol | 
2 | 5′-d(TAGGTC6ATACT) 3′-d(ATCCAGTTATGA): duplex SEQ ID NO: 3 with SEQ ID NO: 2; 6: z^2Ad; one z^2Ad-dT pair (chain 1 TAGGTCAATACT; chain 1: DNA, [z2A] at 7, backbone not given here; chain 2: unmodified DNA) | 42 °C | -9.2 kcal/mol | -85 kcal/mol | −245 cal/K mol | 
3 | 5′-d(TAGGTC66TACT) 3′-d(ATCCAGAAATGA): duplex SEQ ID NO: 5 with SEQ ID NO: 6; 6: z^2Ad; two z^2Ad-dA pairs (chain 1 TAGGTCNNTACT; z2Ad modified nucleosides; modified_base (7)..(8) n = 2-Aza 2′-deoxyadenosine) | 25 °C | -5.7 kcal/mol | -49 kcal/mol | −141 cal/K mol | 
4 | 5′-d(TAGGTC66TACT) 3′-d(ATCCAGCCATGA): duplex SEQ ID NO: 5 with SEQ ID NO: 7; 6: z^2Ad; two z^2Ad-dC pairs (chain 1 TAGGTCNNTACT; z2Ad modified nucleosides; modified_base (7)..(8) n = 2-Aza 2′-deoxyadenosine) | 20 °C | -5.5 kcal/mol | -41 kcal/mol | −113 cal/K mol | 
5 | 5′-d(TAGGTC66TACT) 3′-d(ATCCAGGGATGA): duplex SEQ ID NO: 5 with SEQ ID NO: 8; 6: z^2Ad; two z^2Ad-dG pairs (chain 1 TAGGTCNNTACT; z2Ad modified nucleosides; modified_base (7)..(8) n = 2-Aza 2′-deoxyadenosine) | 46 °C | -10.1 kcal/mol | -74 kcal/mol | −206 cal/K mol | 
6 | 5′-d(TAGGTC66TACT) 3′-d(ATCCAGTTATGA): duplex SEQ ID NO: 5 with SEQ ID NO: 2; 6: z^2Ad; two z^2Ad-dT pairs (chain 1 dTdAdGdGdTdCd[z2A]d[z2A]dTdAdCdT; chain 2: unmodified DNA) | 37 °C | -7.7 kcal/mol | -76 kcal/mol | −219 cal/K mol | 
7 | 5′-d(TAGGTCAATACT) 3′-d(ATCCAGGGATGA): unmodified duplex SEQ ID NO: 1 with SEQ ID NO: 8; two dA-dG mismatches (unmodified DNA) [reference compound] | 36 °C | -7.4 kcal/mol | -47 kcal/mol | −127 cal/K mol | 
8 | 5′-d(TAGGTCAATACT) 3′-d(ATCCAGTTATGA): unmodified standard duplex, SEQ ID NO: 1 with SEQ ID NO: 2 (= SEQ ID NO: 10) (listed as DNA, chemistry not fully specified; one strand is listed 3' to 5') [reference compound] | 46 °C | -10.4 kcal/mol | -82 kcal/mol | −230 cal/K mol | Tm ([1]; listed as 5′-d(TAGGTCAATACT) 5′-d(AGTATTGACCTA)): 47 °C
9 | 5′-d(TAGGTCGGTACT) 3′-d(ATCCAGCCATGA): unmodified duplex SEQ ID NO: 9 with SEQ ID NO: 7; two G-C pairs (listed as DNA, chemistry not fully specified; one strand is listed 3' to 5') [reference compound] | 54 °C |  |  |  | 
10 | Nc1nnnc2c1ncn2[C@H]1C[C@H](O)[C@@H](CO)O1 [Compound 2, 4-Amino-7-(2-deoxy-β-D-erythro-pentofuranosyl)-7H-imidazo[4,5-d][1,2,3]-triazine] |  |  |  |  | base pairing with 2′-deoxyguanosine (dG) [1]: specifically stable base pairs; base pairing with dT, dC and dA [1]: much less stable base pairs
11 | O=c1[nH]nnc2c1ncn2[C@H]1C[C@H](O)[C@@H](CO)O1 [Compound 3, 7-(2-deoxy-β-D-erythro-pentofuranosyl)-7H-imidazo[4,5-d][1,2,3]-triazin-4-one] |  |  |  |  | stability of the base pair I^Az/G, less than the base pair A/T [2]: 9 °; stability of the base pair I^Az/G, less than the regular base pair C/G [2]: 13 °
12 | OC[C@H]1O[C@@H](N2CNc3c2nnn2ccnc32)C[C@@H]1O [Compound 7, 3-(2-Deoxy-β-D-erythro-pentofuranosyl)-1H-diimidazo[1,2-c:4′,5′-e][1,2,3]-triazine] |  |  |  |  | melting point: 151 to 152 °C (dec.)
13 | CC(C)CN(C=Nc1nnnc2c1ncn2[C@H]1C[C@H](O)[C@@H](CO)O1)CC(C)C [Compound 9b, 7-(2-Deoxy-β-D-erythro-pentofuranosyl)-4-{[(di-isobutylamino)methylidene]-amino}-7H-imidazo[4,5-d][1,2,3]-triazine] |  |  |  |  | melting point: 138 to 140 °C
14 | CCCCN(C=Nc1nnnc2c1ncn2[C@H]1C[C@H](O)[C@@H](CO)O1)CCCC [Compound 9c, 7-(2-Deoxy-β-D-erythro-pentofuranosyl)-4-{[(di-n-butylamino)methylidene]-amino}-7H-imidazo[4,5-d][1,2,3]-triazine] |  |  |  |  | melting point: 107 to 109 °C
